Read-outs that look alike come from different tables or passages of the source.
System: panel of hematologic and solid cancer lines
Test: 6-day in vitro growth/death assay
Format: cell-based, human
Settings: read-out: gIC50
Experimental: To further develop these molecules and to guide clinical strategy, it was necessary to understand sensitivity in preclinical models by assessing the anti-tumour activity of the PRMT5 inhibitors in various cancers.
Cell lines were obtained from ATCC or DSMZ and were grown in recommended medium, which was most frequently RPMI-1640 containing 10% FBS. Cell line proliferation assays, Western blotting, qRT-PCR, and cell cycle analyses were performed as described previously[27],[28]. Antibody and gene expression reagents are as described in Supplementary Table 16. All studies were conducted in accordance with the GSK Policy on the Care, Welfare and Treatment of Laboratory Animals and were reviewed by the Institutional Animal Care and Use Committee either at GSK or by the ethical review process at the institution where the work was performed. Detailed descriptions of all methods can be found in the Supplemental Materials.

In the case of `O=C(NC[C@H](O)CN1CCc2ccccc2C1)c1ccnc(NC2CCC2)c1` [GSK3203591], the IC50 5637 is reported as 143 nM, the IC50 (A172) is reported as 590 nM and the IC50 (BJAB) is reported as 3100 nM. For the same compound, the IC50 (DOHH-2) was 116 nM, the IC50 (HCC70) was 522 nM and the IC50 (HCC1143) was 509 nM. For the same compound, the IC50 (HCC1806) was 261 nM, the IC50 (Homo sapiens, 1A2, 1A2) was 333 nM and the IC50 (Homo sapiens, 22Rv1, 22Rv1) was 23500 nM. The IC50 (Homo sapiens, 639-V) was 731 nM, the IC50 (Homo sapiens, 647-V) was 426 nM and the IC50 (Homo sapiens, 769-P) was > 29300 nM. The IC50 (Homo sapiens, 5637) was 143 nM, the IC50 (Homo sapiens, A 172, A172) was 590 nM and the IC50 (Homo sapiens, A204, A204) was > 29000 nM. For the same compound, the IC50 (Homo sapiens, A498, A498) was 435 nM, the IC50 (Homo sapiens, A549, A549) was 837 nM and the IC50 (Homo sapiens, A-375, A-375) was 647 nM. The IC50 (Homo sapiens, A-427, A427) was 276 nM, the IC50 (Homo sapiens, AML-193) was 1400 nM and the IC50 (Homo sapiens, AMO1, AMO-1) was 337 nM. The IC50 (Homo sapiens, ARH-77, ARH-77) was 238 nM, the IC50 (Homo sapiens, ASPC1, ASPC1) was 424 nM and the IC50 (Homo sapiens, BC-3C) was 408 nM. It also gave an IC50 (Homo sapiens, BFTC-905, BFTC-905) of 440 nM, an IC50 (Homo sapiens, BJAB) of 3100 nM and an IC50 (Homo sapiens, BT-20, BT-20) of 8160 nM. It also gave an IC50 (Homo sapiens, BT-474, BT-474) of 5740 nM, an IC50 (Homo sapiens, BT-549, BT549) of 17800 nM and an IC50 (Homo sapiens, CA46, CA-46) of 580 nM. The IC50 (Homo sapiens, CAKI-1, Caki-1) was 578 nM, the IC50 (Homo sapiens, CAL-29) was 817 nM and the IC50 (Homo sapiens, CAL-51, CAL-51) was 2300 nM. It also gave an IC50 (Homo sapiens, CAL-85-1, CAL-85-1) of 1740 nM, an IC50 (Homo sapiens, CAMA-1, CAMA-1) of 7330 nM and an IC50 (Homo sapiens, CAPAN-1, CAPAN1) of 1110 nM. For the same compound, the IC50 (Homo sapiens, CHP-212, CHP-212) was 16.3 nM, the IC50 (Homo sapiens, COLO 201, Colo 201) was 661 nM and the IC50 (Homo sapiens, COLO 205, Colo 205) was 694 nM. It also gave an IC50 (Homo sapiens, COLO 320DM, COLO-320DM) of 2350 nM, an IC50 (Homo sapiens, COLO-320-HSR, Colo 320 HSR) of 2220 nM and an IC50 (Homo sapiens, COLO-741, COLO-741) of 2910 nM. For the same compound, the IC50 (Homo sapiens, COR-L23, COR-L23) was 786 nM, the IC50 (Homo sapiens, COR-L105, COR-L105) was > 29300 nM and the IC50 (Homo sapiens, Caco-2, CaCo-2) was 740 nM. For the same compound, the IC50 (Homo sapiens, Calu-1, Calu1) was > 29300 nM, the IC50 (Homo sapiens, Calu-6, Calu6) was 1280 nM and the IC50 (Homo sapiens, Capan-2, CAPAN2) was 1060 nM. The IC50 (Homo sapiens, ChaGo-K-1, Cha-Go-K1) was 2820 nM, the IC50 (Homo sapiens, DB) was 346 nM and the IC50 (Homo sapiens, DBTRG-05MG, DBTRG05MG) was > 29300 nM. For the same compound, the IC50 (Homo sapiens, DLD-1, DLD-1) was 2430 nM, the IC50 (Homo sapiens, DMS-114, DMS114) was 9170 nM and the IC50 (Homo sapiens, DMS-273, DMS273) was 262 nM. It also gave an IC50 (Homo sapiens, DOHH-2, DOHH-2) of 116 nM, an IC50 (Homo sapiens, DU-145, DU145) of 3720 nM and an IC50 (Homo sapiens, DU-4475, DU-4475) of 1010 nM. It also gave an IC50 (Homo sapiens, EBC-1, EBC-1) of 239 nM, an IC50 (Homo sapiens, EFM-19, EFM-19) of 162 nM and an IC50 (Homo sapiens, F-36P) of 1880 nM. The IC50 (Homo sapiens, G-361, G-361) was 4360 nM, the IC50 (Homo sapiens, G-401, G-401) was 189 nM and the IC50 (Homo sapiens, GDM-1, GDM-1) was 42.3 nM. The IC50 (Homo sapiens, GF-D8) was 33200 nM, the IC50 (Homo sapiens, HCC38, HCC38) was 127 nM and the IC50 (Homo sapiens, HCC70, HCC70) was 522 nM. It also gave an IC50 (Homo sapiens, HCC827, HCC827) of 21000 nM, an IC50 (Homo sapiens, HCC1143, HCC1143) of 509 nM and an IC50 (Homo sapiens, HCC1395, HCC1395) of 14700 nM. The IC50 (Homo sapiens, HCC1569, HCC1569) was 11300 nM, the IC50 (Homo sapiens, HCC1806, HCC1806) was 261 nM and the IC50 (Homo sapiens, HCC1937, HCC1937) was 956 nM. It also gave an IC50 (Homo sapiens, HCC2935, HCC2935) of 21600 nM, an IC50 (Homo sapiens, HCC4006, HCC4006) of 170 nM and an IC50 (Homo sapiens, HCT-15, HCT-15) of 1250 nM. It also gave an IC50 (Homo sapiens, HCT-116, HCT-116) of 10000 nM, an IC50 (Homo sapiens, HD-MY-Z) of 143 nM and an IC50 (Homo sapiens, HEL 92.1.7, HEL 92.1.7) of 12400 nM. The IC50 (Homo sapiens, HL-60, HL60) was 4270 nM, the IC50 (Homo sapiens, HOS) was > 29000 nM and the IC50 (Homo sapiens, HPAC) was 901 nM. For the same compound, the IC50 (Homo sapiens, HPAF-II, HPAFII) was 957 nM, the IC50 (Homo sapiens, HT115, HT115) was 1740 nM and the IC50 (Homo sapiens, HT-29, HT-29) was 1810 nM. It also gave an IC50 (Homo sapiens, HT-144, HT-144) of 1050 nM, an IC50 (Homo sapiens, HT-1376, HT-1376) of 13100 nM and an IC50 (Homo sapiens, HT) of 272 nM. The IC50 (Homo sapiens, Hs 445, Hs445) was 976 nM, the IC50 (Homo sapiens, Hs766T) was 1970 nM and the IC50 (Homo sapiens, Hs-578T, Hs578t) was 18200 nM. It also gave an IC50 (Homo sapiens, HuNS1, Huns1) of 887 nM, an IC50 (Homo sapiens, HuP-T3, HuP-T3) of 3390 nM and an IC50 (Homo sapiens, HuP-T4, HuP-T4) of 190 nM. It also gave an IC50 (Homo sapiens, HuT78, HuT78) of 103 nM, an IC50 (Homo sapiens, IGR-1, IGR-1) of 8760 nM and an IC50 (Homo sapiens, IGROV-1, IGROV-1) of 189 nM. For the same compound, the IC50 (Homo sapiens, J82, J82) was 20900 nM, the IC50 (Homo sapiens, JJN-3, JJN3) was 164 nM and the IC50 (Homo sapiens, JM1, JM1) was 75.8 nM. It also gave an IC50 (Homo sapiens, JMSU-1, JMSU-1) of 583 nM, an IC50 (Homo sapiens, JVM-2, JVM-2) of 172 nM and an IC50 (Homo sapiens, JY) of 95.1 nM. The IC50 (Homo sapiens, JeKo-1, JeKo-1) was 6190 nM, the IC50 (Homo sapiens, K562, K562) was 310 nM and the IC50 (Homo sapiens, KMS-11, KMS-11) was 46.8 nM. It also gave an IC50 (Homo sapiens, KMS-12-BM) of 190 nM, an IC50 (Homo sapiens, KO52) of 513 nM and an IC50 (Homo sapiens, KP-3) of 99.9 nM. It also gave an IC50 (Homo sapiens, KP-4, KP-4) of 20800 nM, an IC50 (Homo sapiens, KPL-1, KPL-1) of 4110 nM and an IC50 (Homo sapiens, KS-1) of 85.5 nM. It also gave an IC50 (Homo sapiens, KU-19-19, KU-19-19) of 1110 nM, an IC50 (Homo sapiens, Kasumi 1, KASUMI-1) of 13200 nM and an IC50 (Homo sapiens, L-363, L363) of 65.7 nM. It also gave an IC50 (Homo sapiens, L-428, L-428) of 665 nM, an IC50 (Homo sapiens, LC-1sq) of 7590 nM and an IC50 (Homo sapiens, LK-2, LK2) of 89.9 nM. The IC50 (Homo sapiens, LN-18, LN-18) was 9680 nM, the IC50 (Homo sapiens, LN-229, LN-229) was 1150 nM and the IC50 (Homo sapiens, LNCaP) was 18900 nM. The IC50 (Homo sapiens, LP-1, LP1) was 975 nM, the IC50 (Homo sapiens, LS-411N, Ls411N) was 442 nM and the IC50 (Homo sapiens, LoVo) was 494 nM. For the same compound, the IC50 (Homo sapiens, Lu-65, LU65) was 463 nM, the IC50 (Homo sapiens, Lu-99, LU-99) was 5300 nM and the IC50 (Homo sapiens, M059J) was 18900 nM. It also gave an IC50 (Homo sapiens, M059K) of 7890 nM, an IC50 (Homo sapiens, MC116, MC116) of 82 nM and an IC50 (Homo sapiens, MC/CAR) of 2740 nM. For the same compound, the IC50 (Homo sapiens, MCF7, MCF-7) was 215 nM, the IC50 (Homo sapiens, MDA-MB-157, MDA-MB-157) was 3250 nM and the IC50 (Homo sapiens, MDA-MB-231, MDA-MB-231) was 2930 nM. It also gave an IC50 (Homo sapiens, MDA-MB-435S) of 2220 nM, an IC50 (Homo sapiens, MDA-MB-436, MDA-MB-436) of 7130 nM and an IC50 (Homo sapiens, MDA-MB-453, MDA-MB-453) of 343 nM. For the same compound, the IC50 (Homo sapiens, MDA-MB-468, MDA-MB-468) was 585 nM, the IC50 (Homo sapiens, ME-1, ME1) was 2450 nM and the IC50 (Homo sapiens, MEL-HO) was 1550 nM. It also gave an IC50 (Homo sapiens, MEL-JUSO) of 79.3 nM, an IC50 (Homo sapiens, MHH-PREB-1, MHH-PREB-1) of 3300 nM and an IC50 (Homo sapiens, MIA PaCa-2, Miapaca-2) of 263 nM. It also gave an IC50 (Homo sapiens, MINO) of 536 nM, an IC50 (Homo sapiens, ML-2, ML-2) of 115 nM and an IC50 (Homo sapiens, MOLM16, MOLM-16) of 31000 nM. The IC50 (Homo sapiens, MOLM-13, MOLM-13) was 86.2 nM, the IC50 (Homo sapiens, MOLP-2, MOLP-2) was 22100 nM and the IC50 (Homo sapiens, MONO-MAC-6, MonoMac6) was 196 nM. It also gave an IC50 (Homo sapiens, MV4-11, MV-4-11) of 94.7 nM, an IC50 (Homo sapiens, Maver1, MAVER-1) of 133 nM and an IC50 (Homo sapiens, NALM-6, NALM-6) of 1060 nM. The IC50 (Homo sapiens, NB-4, NB-4) was 80.9 nM, the IC50 (Homo sapiens, NCI-H146, NCI-H146) was 411 nM and the IC50 (Homo sapiens, NCI-H292, NCI-H292) was 1340 nM. The IC50 (Homo sapiens, NCI-H322, NCI-H322) was 1700 nM, the IC50 (Homo sapiens, NCI-H441, NCI-H441) was 22400 nM and the IC50 (Homo sapiens, NCI-H520, NCI-H520) was 26.1 nM. The IC50 (Homo sapiens, NCI-H522, NCI-H522) was > 29300 nM, the IC50 (Homo sapiens, NCI-H526, NCI-H526) was 138 nM and the IC50 (Homo sapiens, NCI-H526-R) was 219 nM. The IC50 (Homo sapiens, NCI-H647, NCI-H647) was 2530 nM and the IC50 (Homo sapiens, NCI-H661, NCI-H661) was 30800 nM.
